Results published in patent US12503436B2, “Compounds and compositions for treating conditions associated with STING activity” (NOVARTIS PHARMA AG, priority 2021, dated 2025).

Biological target: STING (Homo sapiens, UniProt Q86WV6, G230A/H232R/R293Q/R71H)
Test: STING reporter assay in THP1-Dual KO-IFNAR2 cells (2′3′cGAMP stimulation, luciferase reporter)
Format: cell-based
Details: 15 μM 2′3′cGAMP stimulation, 24 h, read-out: Pharmaron, THP1_IFNAR2 STING 24 h Luci Normalized: GeoMean EC50
Procedure: STING pathway activation by the compounds described herein was measured using THP1-Dual™ cells (KO-IFNAR2).
THP1-Dual™ KO-IFNAR2 Cells (obtained from InvivoGen) were maintained in RPMI, 10% FCS, 5 ml P/S, 2 mM L-glut, 10 mM Hepes, and 1 mM sodium pyruvate. Compounds were spotted in empty 384 well tissue culture plates (Greiner 781182) by Echo for a final concentration of 0.0017-100 μM. Cells were plated into the TC plates at 40 μL per well, 2×10E6 cells/mL. For activation with STING ligand, 2′3′cGAMP (MW 718.38, obtained from Invivogen), was prepared in Optimem media.
The following solutions were prepared for each 1×384 plate: • Solution A: 2 mL Optimem with one of the following stimuli: • 60 μL of 10 mM 2′3′cGAMP→150 μM stock • Solution B: 2 mL Optimem with 60 μL Lipofectamine 2000→Incubate 5 min at RT
2 mL of solution A and 2 ml Solution B was mixed and incubated for 20 min at room temperature (RT). 20 μL of transfection solution (A+B) was added on top of the plated cells, with a final 2′3′cGAMP concentration of 15 μM. The plates were then centrifuged immediately at 340 g for 1 minute, after which they were incubated at 37° C., 5% CO2, >98% humidity for 24 h. Luciferase reporter activity was then measured. EC50 values were calculated by using standard methods known in the art.
Luciferase reporter assay: 10 μL of supernatant from the assay was transferred to white 384-plate with flat bottom and squared wells. One pouch of QUANTI-Luc™ Plus was dissolved in 25 mL of water. 100 μL of QLC Stabilizer per 25 mL of QUANTI-Luc™ Plus solution was added. 50 μL of QUANTI-Luc™ Plus/QLC solution per well was then added. Luminescence was measured on a Platereader (e.g., Spectramax I3X (Molecular Devices GF3637001)).
Luciferase reporter activity was then measured. EC50 values were calculated by using standard methods known in the art.

Chain of STING (Q86WV6 whole entry R71H/G230A/H232R/R293Q): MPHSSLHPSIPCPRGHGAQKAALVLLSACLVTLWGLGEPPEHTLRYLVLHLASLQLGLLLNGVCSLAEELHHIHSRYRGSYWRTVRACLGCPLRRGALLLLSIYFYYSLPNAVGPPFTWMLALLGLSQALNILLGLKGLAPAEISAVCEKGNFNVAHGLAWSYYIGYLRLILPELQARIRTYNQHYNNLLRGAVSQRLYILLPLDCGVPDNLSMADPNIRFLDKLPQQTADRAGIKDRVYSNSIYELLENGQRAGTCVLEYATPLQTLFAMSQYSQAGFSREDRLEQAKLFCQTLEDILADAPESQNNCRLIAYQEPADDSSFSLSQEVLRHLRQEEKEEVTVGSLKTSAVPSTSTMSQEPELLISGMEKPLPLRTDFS

Compound	EC50 [nM]
CCC(=O)Nc1c[nH]c2ccc(OCc3ccc(C(F)(F)F)cc3)cc12 [Compound 138, N-(5-((4-(trifluoromethyl)benzyl)oxy)-1H-indol-3-yl)propionamide]	200 to 1000
CC1(C(=O)Nc2c[nH]c3ccc(O[C@H]4C[C@@H](c5ccc(C(F)(F)F)cc5)C4)cc23)CC1 [Compound 263, 1-methyl-N-(5-(cis-3-(4-(trifluoromethyl)phenyl)cyclobutoxy)-1H-indol-3-yl)cyclopropane-1-carboxamide]	200 to 1000
CC1(C)CC(C(=O)Nc2c[nH]c3ccc(O[C@H]4C[C@@H](c5ccc(C(F)(F)F)cc5)C4)cc23)C1 [Compound 361, 3,3-dimethyl-N-(5-(cis-3-(4-(trifluoromethyl)phenyl)cyclobutoxy)-1H-indol-3-yl)cyclobutane-1-carboxamide]	40 to 200
O=C(Nc1c[nH]c2ccc(O[C@H]3C[C@H](c4ccc(C(F)(F)F)cc4)C3)cc12)C1CC(Cl)C1 (stereo partly drawn) [Compound 554, 3-chloro-N-(5-(trans-3-(4-(trifluoromethyl)phenyl)cyclobutoxy)-1H-indol-3-yl)cyclobutane-1-carboxamide]	200 to 1000
CC1(C(=O)Nc2c[nH]c3ccc(O[C@H]4C[C@@H](c5ccc(C(F)(F)F)cc5)C4)cc23)CCOC1 (stereo partly drawn) [Compound 357, 3-methyl-N-(5-(cis-3-(4-(trifluoromethyl)phenyl)cyclobutoxy)-1H-indol-3-yl)tetrahydrofuran-3-carboxamide]	200 to 1000
O=C(Nc1c[nH]c2ccc(O[C@H]3C[C@H](c4ccc(C(F)(F)F)cc4)C3)cc12)C1CC(O)C1 (stereo partly drawn) [Compound 573, 3-hydroxy-N-(5-(trans-3-(4-(trifluoromethyl)phenyl)cyclobutoxy)-1H-indol-3-yl)cyclobutane-1-carboxamide]	40 to 200
O=C(Nc1c[nH]c2ccc(O[C@H]3C[C@H](c4ccc(C(F)(F)F)cc4)C3)cc12)C1CNC1 [Compound 459, N-{5-[(1R, 3R)-3-[4-(trifluoromethyl)phenyl]cyclobutoxy]-1H-indol-3-yl}azetidine-3-carboxamide]	5000 to 100000
O=C(Nc1c[nH]c2ccc(OCCc3ccc(C(F)(F)F)cc3)cc12)C1CN(CCC(F)(F)F)C1 [Compound 299, N-(5-(4-(trifluoromethyl)phenethoxy)-1H-indol-3-yl)-1-(3,3,3-trifluoropropyl)azetidine-3-carboxamide]	200 to 1000
CC(=O)Nc1c[nH]c2ccc(O[C@@H]3C[C@@H](c4ccc(C(F)(F)F)cc4)[C@H]3C)cc12 [Compound 443, N-(5-((1R,2R,3R)-2-methyl-3-(4-(trifluoromethyl)phenyl)cyclobutoxy)-1H-indol-3-yl)acetamide]	200 to 1000
O=C(Nc1c[nH]c2ccc(OCCC3CCN(CC(F)(F)F)CC3)cc12)C1CCC1 [Compound 129, N-(5-(2-(1-(2,2,2-trifluoroethyl)piperidin-4-yl)ethoxy)-1H-indol-3-yl)cyclobutanecarboxamide]	200 to 1000
O=C(Nc1c[nH]c2ccc(COCc3ccc(C(F)(F)F)cc3)cc12)C1CCC1 [Compound 109, N-(5-(((4-(trifluoromethyl)benzyl)oxy)methyl)-1H-indol-3-yl)cyclobutanecarboxamide]	40 to 200
CC(=O)Nc1c[nH]c2ccc(OCc3ccc(C(F)(F)F)cc3)cc12 [Compound 247, N-(5-((4-(trifluoromethyl)benzyl)oxy)-1H-indol-3-yl)acetamide]	200 to 1000
O=C(Nc1c[nH]c2ccc(OCCc3ccc(C(F)(F)F)cc3)cc12)C1CC(F)C1 (stereo not drawn) [Compound 207, 3-fluoro-N-(5-(4-(trifluoromethyl)phenethoxy)-1H-indol-3-yl)cyclobutane-1-carboxamide]	40 to 200

Results, then the compound that gave them:

EC50 [nM]	Compound
200 to 1000	CC(=O)Nc1c[nH]c2ccc(CCOc3ccc(F)c(C(F)(F)F)c3)cc12 [Compound 470, N-(5-{2-[4-fluoro-3-(trifluoromethyl)phenoxy]ethyl}-1H-indol-3-yl)acetamide]
5000 to 100000	CC(=O)Nc1c[nH]c2ccc(OCC3Cc4cnn(CC(F)(F)F)c4C3)cc12 (stereo not drawn) [Compound 444, N-(5-((1-(2,2,2-trifluoroethyl)-1,4,5,6-tetrahydrocyclopenta[c]pyrazol-5-yl)methoxy)-1H-indol-3-yl)acetamide]
200 to 1000	1-fluoro-N-(5-(2-((3aR,5r,6aS)-2-(2,2,2-trifluoroethyl)octahydrocyclopenta[c]pyrrol-5-yl)ethoxy)-1H-indol-3-yl)cyclopropane-1-carboxamide [Compound 371]
200 to 1000	CC1(F)CC(C(=O)Nc2c[nH]c3ccc(OCC[C@@H]4C[C@@H]5CN(CC(F)(F)F)C[C@@H]5C4)cc23)C1 (stereo partly drawn) [Compound 151, 3-fluoro-3-methyl-N-(5-(2-((3aR,5r,6aS)-2-(2,2,2-trifluoroethyl)octahydrocyclopenta[c]pyrrol-5-yl)ethoxy)-1H-indol-3-yl)cyclobutane-1-carboxamide]
40 to 200	CC(=O)Nc1c[nH]c2ccc(CCOc3cccc(CC(F)(F)F)c3)cc12 [Compound 441, N-(5-{2-[3-(2,2,2-trifluoroethyl)phenoxy]ethyl}-1H-indol-3-yl)acetamide]
40 to 200	O=C(Nc1c[nH]c2ccc(OCCc3ccc(C(F)(F)F)cc3)cc12)[C@H]1C[C@@H](CO)C1 [Compound 533, cis-3-(hydroxymethyl)-N-(5-(4-(trifluoromethyl)phenethoxy)-1H-indol-3-yl)cyclobutane-1-carboxamide]
1000 to 5000	CC(=O)Nc1c[nH]c2ccc(CCOc3ccc4ccncc4c3)cc12 [Compound 449, N-{5-[2-(isoquinolin-7-yloxy)ethyl]-1H-indol-3-yl}acetamide]
200 to 1000	O=C(Nc1c[nH]c2ccc(OCc3ccc(C(F)(F)F)cc3)cc12)C1(C(F)(F)F)CC1 [Compound 315, 1-(trifluoromethyl)-N-(5-((4-(trifluoromethyl)benzyl)oxy)-1H-indol-3-yl)cyclopropane-1-carboxamide]
5000 to 100000	CC(=O)Nc1c[nH]c2ccc(CCC3(c4ccc(C(F)(F)F)cc4)COC3)cc12 [Compound 508, N-(5-(2-(3-(4-(trifluoromethyl)phenyl)oxetan-3-yl)ethyl)-1H-indol-3-yl)acetamide]
5000 to 100000	CNC(Cc1ccc(C(F)(F)F)cc1)Cc1ccc2[nH]cc(NC(C)=O)c2c1 (stereo not drawn) [Compound 506, N-(5-(2-(methylamino)-3-(4-(trifluoromethyl)phenyl)propyl)-1H-indol-3-yl)acetamide]
1000 to 5000	CC(=O)Nc1c[nH]c2c(C)cc(CCOc3ccc(C(F)(F)F)cc3)nc12 [Compound 259, N-(7-methyl-5-(2-(4-(trifluoromethyl)phenoxy)ethyl)-1H-pyrrolo[3,2-b]pyridin-3-yl)acetamide]
200 to 1000	O=C(Nc1c[nH]c2ccc(CCOc3ccc(C(F)(F)F)cc3)cc12)[C@H]1C[C@@H](O)C1 [Compound 179, (1S,3S)-3-hydroxy-N-(5-{2-[4-(trifluoromethyl)phenoxy]ethyl}-1H-indol-3-yl)cyclobutane-1-carboxamide]
200 to 1000	O=C(Nc1c[nH]c2ccc(OCc3ccc(C(F)(F)F)cc3)cc12)C1CC(CO)C1 (stereo not drawn) [Compound 153, 3-(hydroxymethyl)-N-(5-((4-(trifluoromethyl)benzyl)oxy)-1H-indol-3-yl)cyclobutane-1-carboxamide]
200 to 1000	CC1(C(=O)Nc2c[nH]c3ccc(OCc4ccc(C(F)(F)F)cc4)cc23)CC1 [Compound 301, 1-methyl-N-(5-((4-(trifluoromethyl)benzyl)oxy)-1H-indol-3-yl)cyclopropane-1-carboxamide]
